Results taken from US4001238A, “1,3,4-Oxadiazole amides” (Bristol-Myers Company, priority 1976, dated 1977).

Columns and labels:
[1] = system: spontaneous hypertensive rats; test: Antihypertensive activity, oral administration to spontaneous hypertensive rats; type: in vivo, rat; settings: for ED50: Rattus norvegicus, read-out: Antihypertensive Activity ED50 mm Hg
Description: (§1) In Table 1, antihypertensive activity was determined by oral administration to spontaneous hypertensive rats, and the in vitro and in vivo α-adrenergic receptor blocking effect was determined by tests described following Table 1.

α-adrenergic receptor [2] = molecular target: T1, α-adrenergic receptor (Rattus norvegicus, UniProt P43140); test: Isolated rat seminal vesicle assay (inhibition of norepinephrine induced contractions; α-adrenergic receptor blocking effect in vitro); settings: for decrease in the sensitivity of isolated rat seminal vesicles to the stimulant activity of NE: 10 nanograms/ml; for NE ED50 with 95% Conf. Limits: NE ED50 in presence of test compound 10 nano/ml, control 0.89 (0.84-0.94)
T1 construct: Seminal vesicles were removed and transfered to a shallow dish containing modified Tyrode's solution; from tissue; host or cells: isolated seminal vesicle of male Long Evans rats
T1 sequence (P43140 1-466): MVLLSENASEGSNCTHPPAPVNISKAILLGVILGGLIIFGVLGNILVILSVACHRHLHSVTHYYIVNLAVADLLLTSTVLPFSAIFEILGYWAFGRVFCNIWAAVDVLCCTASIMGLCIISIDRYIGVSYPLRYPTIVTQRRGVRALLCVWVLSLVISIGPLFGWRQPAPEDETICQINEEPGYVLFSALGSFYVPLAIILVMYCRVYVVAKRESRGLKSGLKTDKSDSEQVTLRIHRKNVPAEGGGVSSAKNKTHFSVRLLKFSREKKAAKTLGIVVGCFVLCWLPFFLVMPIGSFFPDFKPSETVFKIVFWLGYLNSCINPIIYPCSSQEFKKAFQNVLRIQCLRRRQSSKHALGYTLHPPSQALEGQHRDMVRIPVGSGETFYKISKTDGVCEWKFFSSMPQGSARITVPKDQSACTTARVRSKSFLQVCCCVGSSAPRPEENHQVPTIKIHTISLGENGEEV
Description: as §1, with “1. In the in vitro test, the inhibition by BL-5111 of norepinephrine induced contractions of rat seminal vesicles was measured; and in the in vivo test, the inhibition by BL-5111 of norepinephrine induced pressor responses in anesthetized dogs was measured.” for “1.”
Dangan et al, Int. […] Lietch et al, Brit.
Male Long Evans rats weighing approximately 300 g. were sacrificed by a sharp blow on the head. Seminal vesicles were removed and transfered to a shallow dish containing modified Tyrode's solution. The vesicles were emptied of their contents by squeezing them gently with a pair of forceps. Silk thread (4-0) was attached to both ends of the vesicle and it was suspended in a 20 ml. muscle chamber containing modified oxygenated Tyrode's solution (g./liter: NaCl 8, KCl 0.2, CaCl2 0.26, NaHCO3 1, Na2 HPO4 0.0575, glucose 0.5 and MgCl2 0.02). The bathing fluid was maintained at 37° C. with a thermostatically controlled isolated organ tissue bath. Contractions were recorded isometrically by means of a force displacement transducer and recordings were made with a Beckman RP Dynograph. Norepinephrine (NE) was added to the muscle chamber in volumes ranging from 0.1 to 0.4 ml. with a one ml. syringe attached to a 3 inch 20 gauge needle. NE and test compounds were dissolved in deionized water.
NE dose response curves were obtained alone and in the presence of test compounds. NE was allowed to remain in contact with the strip until a maximal contraction was obtained. The strip was then washed with the perfusion fluid for 15-30 seconds and the preparation was allowed to return to base line before a subsequent dose of NE was given. Increasing amounts of NE were injected into the bath in the same manner until a complete dose response was obtained.
The seminal vesicles used to obtain the control NE dose response were discarded and new preparations were placed in the tissue bath for evaluation of the test compound. The test compound was added directly to the perfusion fluid (10 nanograms/ml.) and the strips were allowed to remain in contact with the bathing media for at least 10 minutes before the NE dose response was determined.
ED50 values for NE were obtained by regression analysis as described by Finney, Probit. Analysis, 2d Ed., Cambridge (1964). A minimum of 4 strips and at least 4 doses were employed to calculate the regression lines. The ED50 value is defined as the concentration of NE which produces a contraction equal to 50% of the maximal contraction.

in vivo = settings: mouse, IV, mice
α-adrenergic receptor [3] = test: Anesthetized dog assay for α-adrenergic blocking agents (inhibition of norepinephrine induced pressor responses); type: in vivo
Description: as §1, with “1. In the in vitro test, the inhibition by BL-5111 of norepinephrine induced contractions of rat seminal vesicles was measured; and in the in vivo test, the inhibition by BL-5111 of norepinephrine induced pressor responses in anesthetized dogs was measured.” for “1.”
Nash, C. B., Pharmacological Research Communications, 4:423, (1969) and Maxwell, R. A., Drill's Pharmacology in Medicine, (1971) p. 683 have shown that in anesthetized dogs α-adrenergic blocking agents antagonize the blood pressure elevating effects of intravenous norepinephrine. Thus, blood pressure responses to norepinephrine (NE) in anesthetized dogs was used as a comparative assay for α-adrenergic receptor blocking properties of drugs.
Experiments were done on mongrel dogs anesthetized with sodium pentobarbital, 30 mg./kg. iv. The left femoral artery was cannulated to record aortic blood pressure and a femoral vein was cannulated for administration of drugs. All animals underwent a bilateral vagotomy. A norepinephrine dose-response curve was obtained by administering increasing doses of iv. norepinephrine (0.01 - 1 μg/kg). […] Approximately 30 minutes later a dose-response curve was again established for iv. norepinephrine (0.01-10 μg/kg).

Solubility in water = type: physicochemical; settings: in words
Description: Compound I can exist in two polymorphic forms. In an earlier experiment similar to Experiment E with the exception that an excess of piperazine hydrobromide was used, a water soluble form (Isomorph A) of Compound I having a M.P. of 224°-228° C. was obtained. This product was recrystallized from nitromethane to give an analytical sample of Isomorph A having a M.P. of 227°-229° C.
A 200 mg. sample of Isomorph A was dissolved in 10 ml. of water at 20° C. The solution was heated at 60° C. for 3 minutes, then cooled to 35° C. and filtered. […] This product was termed Isomorph B of Compound I.

vascular smooth muscle = settings: in words; literature; cited from earlier work
α-adrenergic receptor [4] = settings: in words; literature; cited from earlier work
humans [5] = test: Clinical use as antihypertensive agent (literature); type: in vivo, human; settings: lower end of clinical daily dosage range (trimazosin 150 to 500 mg, prazosin 1.5 to 15 mg)
humans [6] = settings: clinical, in words; literature; cited from earlier work
[7] = 1 mg/kg, oral, spontaneous hypertensive rats
[8] = 3 mg/kg, oral, spontaneous hypertensive rats
[9] = 10 mg/kg, oral, spontaneous hypertensive rats
[10] = oral, spontaneous hypertensive rats
[11] = 10 nano/ml, isolated rat seminal vesicles

Row | solubility in water (Solubility in water) | SMILES | % Blood Pressure Change [1, 7] [%] | % Blood Pressure Change [1, 8] [%] | % Blood Pressure Change [1, 9] [%] | ED50 [1, 10] [mg/kg] | Percent Change From Control (NE ED50) (α-adrenergic receptor [2]; [11]) [%] | decrease in the sensitivity of isolated rat seminal vesicles to the stimulant activity of NE (α-adrenergic receptor [2]; in words) | NE ED50 with 95% Conf. Limits (α-adrenergic receptor [2]; isolated rat seminal vesicles) | other results
1 | – | COc1cc2nc(N3CCN(C(=O)c4nnc(SC)o4)CC3)nc(N)c2cc1OC.Cl [BL-5111, 4-Amino-6,7-dimethoxy-2-[4-(5-methylthio-1,3,4-oxadiazole-2-carbonyl)-piperazin-1-yl]-quinazoline hydrochloride] | -19 | -26 | -41 | 2.3 | 4.5 | essentially inactive | 0.93 (0.80-1.08) μg/ml | antihypertensive potency compared to prazosin ([1]; in words): comparable antihypertensive potency to prazosin; Antihypertensive Activity Ratio ([1]; relative to prazosin, oral, spontaneous hypertensive rats): 0.91; Activity Ratio Relative to Prazosin (α-adrenergic receptor [2]; Table II, 10 nano/ml, isolated rat seminal vesicles): 0.008; α-adrenergic blocking activity relative to prazosin (α-adrenergic receptor [2]; conclusion from isolated rat seminal vesicles, in words): less than one percent; LD50 (in vivo): 45.7 mg/kg; times less active than prazosin in causing α-adrenergic blockade (α-adrenergic receptor [3]; 3 mg/kg iv, anesthetized dogs): approximately 30 times; α-Adrenergic Receptor Blocking Effect, In Vivo Activity Ratio (α-adrenergic receptor [3]; Table 1, relative to prazosin, intravenous, anesthetized dogs): 0.04; Activity Ratio Relative to Prazosin (α-adrenergic receptor [3]; Table III, 3 mg/kg iv, anesthetized dogs): 0.036; peripheral α-adrenergic blocking properties (α-adrenergic receptor [3]; in words, in vitro and in vivo tests together (Table 1)): little or none of the peripheral α-adrenergic blocking properties shown by prazosin
2 | water soluble | COc1cc2nc(N3CCNCC3)nc(N)c2cc1OC [Isomorph A, 4-amino-6,7-dimethoxy-2-(1-piperazinyl)quinazoline] | – | – | – | – | – | – | – | –
3 | would not redissolve in boiling water | COc1cc2nc(N3CCNCC3)nc(N)c2cc1OC [Isomorph B, 4-amino-6,7-dimethoxy-2-(1-piperazinyl)quinazoline] | – | – | – | – | – | – | – | –
4 | – | COc1cc2nc(N3CCN(C(=O)c4ccco4)CC3)nc(N)c2cc1OC [Prazosin, 2-[4-(2-furoyl)-piperazin-1-yl]-4-amino-6,7-dimethoxyquinazoline, reference compound] | -14 | -29 | -42 | 2.1 | 578 | nearly a six fold decrease | 6.03 (5.30-6.81) μg/ml | vasodilation effect on vascular smooth muscle (vascular smooth muscle): direct peripheral vasodilation effect on vascular smooth muscle; peripheral α-adrenergic receptor blockade (α-adrenergic receptor [4]): functional peripheral α-adrenergic receptor blockade
5 | – | COc1cc2c(N)nc(N3CCN(C(=O)OCC(C)(C)O)CC3)nc2c(OC)c1OC [Trimazosin] | – | – | – | – | – | – | – | potency relative to prazosin (fold weaker) (humans [5]): 100 fold; activity in humans as an antihypertensive agent (humans [6]): active in humans as an antihypertensive agent
